A word on the Kd: it is the free concentration of one partner at which half of the binding sites on the other are occupied at equilibrium, for simple one-to-one binding.

Test [1] in a line: Binding affinity to quail lipocalin Q83 at 200 uM by tryptophan fluorescence quenching experiment. Also on record: species or system Galliformes.
Test [2] concerns Galliformes. The experiment in a line: Binding affinity to quail lipocalin Q83 by 1H-15N HSQC-based NMR analysis.
For test [3], the target named is T1, Catenin beta-1 (Homo sapiens) (UniProt P35222).
T1 sequence (whole entry): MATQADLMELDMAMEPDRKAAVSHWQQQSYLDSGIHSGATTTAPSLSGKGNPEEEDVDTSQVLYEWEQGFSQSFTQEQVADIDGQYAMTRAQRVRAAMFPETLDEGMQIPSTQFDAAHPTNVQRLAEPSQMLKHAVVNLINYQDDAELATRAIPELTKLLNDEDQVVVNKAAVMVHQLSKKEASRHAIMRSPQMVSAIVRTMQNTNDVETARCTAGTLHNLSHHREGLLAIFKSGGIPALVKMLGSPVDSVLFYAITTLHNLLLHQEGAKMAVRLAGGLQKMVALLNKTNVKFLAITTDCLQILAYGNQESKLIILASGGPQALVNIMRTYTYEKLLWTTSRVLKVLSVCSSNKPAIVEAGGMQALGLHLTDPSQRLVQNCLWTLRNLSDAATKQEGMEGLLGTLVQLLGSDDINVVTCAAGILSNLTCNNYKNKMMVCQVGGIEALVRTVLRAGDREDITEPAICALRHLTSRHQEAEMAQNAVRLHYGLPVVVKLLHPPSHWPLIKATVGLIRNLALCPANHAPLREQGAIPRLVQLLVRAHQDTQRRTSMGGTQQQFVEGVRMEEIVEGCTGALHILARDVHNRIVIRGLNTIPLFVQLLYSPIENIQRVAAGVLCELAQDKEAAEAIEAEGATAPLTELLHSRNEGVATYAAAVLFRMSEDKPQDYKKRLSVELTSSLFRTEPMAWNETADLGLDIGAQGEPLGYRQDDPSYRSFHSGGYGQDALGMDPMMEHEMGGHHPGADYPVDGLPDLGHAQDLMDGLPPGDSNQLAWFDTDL
The experiment in a line: Binding affinity to human beta-catenin at 1 mM by 1H-STD NMR analysis.

Test [4] in a line: Binding affinity to quail lipocalin Q83 assessed as second molecule binding at 2:1 compound:protein ratio by […]. The arrangement: species or system Galliformes.
Test [5] in a line: Binding affinity to quail lipocalin Q83 assessed as first molecule binding at 2:1 compound:protein ratio by […]. The arrangement: species or system Galliformes.

Structures are written as SMILES. Activity calls are given as the source filed them. The calls are words filed in the database; no cut-off is given here.

Take `Nc1ccc(/N=N/c2ccc(S(=O)(=O)O)cc2)cc1S(=O)(=O)O`: in test [1], the Kd came out at 25 µM. For the same compound, in test [2], the result was Active. For the compound `Cc1c(Br)cc2c(-c3ccccc3C(=O)O)c3cc(Br)c(=O)c(Br)c-3oc2c1Br`, in test [3], the result was Active. For `O=C1OC2(c3ccc(O)cc3Oc3cc(O)ccc32)c2ccccc21`, the outcome in test [3] was Active. As for `COc1cc(C(=O)O)ccc1O` [VANILLIC ACID], the figures for the Kd in test [4] and in test [5] were 70000 µM and 500 µM, respectively. Also, in test [2], the result was Active.

The record behind these values is ChEMBL document CHEMBL2169834, “Toward rational fragment-based lead design without 3D structures” (J Med Chem, 2012).
